From US4082760A, “Derivatives of 2H,3H-benzimidazo(1,2-b)oxazole” (Italchemi S.p.A. Istituto Chimico Farmaceutico, priority 1975, dated 1978)

Experiments:
Assay in all cases: MIC of antibiotics alone or mixed with equimolar compound, beta-lactamase-producing germs
Assay type in all cases: cell-based
[1] = system: Protetts Rettgeri R5; conditions: combinations: equimolar quantities
Description: (§1) The capacity of the products of general formula (I) to compete with the action of the beta-lactamase may be shown by comparing the minimum inhibiting concentrations (MIC) of some penicillins and cephalosporins when mixed with equimolar quantities of the products of general formula I and when not so mixed, in relation to pathogenic germs which produce beta-lactamase.

[2] = system: Escherichia Coli R9; conditions: combinations: equimolar quantities
Description: as §1

[3] = system: Protetts mirabilis R2; conditions: combinations: equimolar quantities
Description: as §1

[4] = system: Protetts mirabilis; conditions: Protetts mirabilis (strain number not given); combinations: equimolar quantities
Description: as §1

[5] = system: Escherichia Coli R3; conditions: combinations: equimolar quantities
Description: as §1

[6] = system: Pseudomonas Aeruginosa R4; conditions: combinations: equimolar quantities
Description: as §1

[7] = system: Protetts mirabilis R7; conditions: combinations: equimolar quantities
Description: as §1

[8] = system: Escherichia Coli R8; conditions: combinations: equimolar quantities
Description: as §1

[9] = system: Pseudomonas Aeruginosa R1; conditions: combinations: equimolar quantities
Description: as §1

| MIC [1] | MIC [3] | MIC [4] | MIC [5] | MIC [7] | MIC [8] | MIC [9] | Structure (SMILES) | MIC [2] | MIC [6] |
| --- | --- | --- | --- | --- | --- | --- | --- | --- | --- |
| 1000 γ/cc | 1000 γ/cc | 1000 γ/cc | 1000 γ/cc | 1000 γ/cc | 500 γ/cc | – | CC1(C)S[C@@H]2[C@H](NC(=O)[C@H](N)c3ccccc3)C(=O)N2[C@H]1C(=O)O [Ampicillin] | 500 γ/cc | 1000 γ/cc |
| – | – | – | – | – | – | 1000 γ/cc | O=C(Cc1cccs1)N[C@@H]1C(=O)N2C(C(=O)[O-])=C(C[n+]3ccccc3)CS[C@H]12 [Cephaloridine] | – | – |
| – | – | – | – | – | – | – | CC(=O)OCC1=C(C(=O)O)N2C(=O)[C@@H](NC(=O)Cc3cccs3)[C@H]2SC1 [Cephalothin] | 1000 γ/cc | 1000 γ/cc |
